Assays:
HIV-1 Env = HIV-1 Env (Human immunodeficiency virus type 1 group M subtype B, UniProt P03375); conditions: cited from earlier work
HIV-1 EnvNL4-3 = assay: smFRET imaging of dually labelled HIV-1 Env on surface-immobilized virions (TIRF); type: biochemical, HIV-1NL4-3; conditions: for agonist/antagonist character by smFRET (activation of HIV-1 Env): 100 μM, FIG. 10c, d; for effect of inhibitor on smFRET state distribution of HIV-1 Env: tested at concentrations 10-100-fold above the Kd (100 μM), FIG. 10
Experimental: All HIV-1 virions were generated by transfection of pNL4-3-based plasmids in HEK293T cells. Virus was harvested 24 h post-transfection and concentrated by centrifugation. Dually tagged viruses were site-specifically labelled at each peptide insert simultaneously through incubation with appropriate fluorophore conjugates and labelling enzymes. The viruses were purified away from unbound dye by density-gradient ultracentrifugation. Viruses were immobilized on streptavidin-coated quartz microscope slides, and imaged with a lab-built prism-based TIRF microscope equipped with multiple laser. Donor and acceptor fluorescence were separated with a dichroic filter, and imaged on parallel EMCCD cameras. All analysis was carried out with custom-designed Matlab software.
The tagged Envs (V1-3-Q3/V4-2-A1 and V1-3-A1/V4-2-A1) were subcloned from pNL4-3 into a pNL4-3 construct lacking reverse transcriptase (pNL4-3 ΔRT). Virus for smFRET experiments was generated by co-transfecting HEK293T cells with tagged-Env-containing pNL4-3 ΔRT and a 40-fold excess of wild-type-Env containing pNL4-3 ΔRT. Virus was harvested 24 h post-transfection and concentrated by centrifugation over a 15% sucrose cushion.
All virus labelling reactions were carried out in buffer containing 50 mM HEPES pH7.5, 10 mM MgCl2, 10 mM CaCl2. Virus containing the V1-3-Q3 and V4-2-A1 peptide insertions was labelled by incubation with 0.5 μM AlexaFluor647-cadaverine (Invitrogen), 0.5 μM Cy3-coenzyme A (Cy3-CoA), 0.65 μM transglutaminase (Sigma) (Lin et al., J Am Chem Soc 128, no. 14 (2006): 4542-3), and 5 μM AcpS (Zhou et al., ACS Chem Biol 2, no. 5 (2007): 337-46) for 2 h at 37° C. Alternatively, virus containing the V1-3-A1 and V4-2-A1 peptide insertions was labelled by incubation with 0.5 μM Cy5-CoA, 0.5 μM Cy3-CoA, and 5 μM AcpS for 2 h at 37° C. […]
Fluorescently labelled virus, containing DSPE-PEG2,000-biotin in the viral membrane was immobilized on passivated streptavidin-coated quartz microscope slides and imaged on a lab-built prism-based TIRF microscope. […] Donor and acceptor fluorescence were collected through a high-NA objective, separated with a 650DCXR dichroic filter (Chroma), and imaged on two parallel EMCCD cameras (Photometrics). Movies of surface-immobilized viruses were recorded at 25 frames/s for 40 s at room temperature. […]
All processing and analysis of fluorescence and smFRET trajectories was carried out using custom-designed Matlab (Mathworks) software. Fluorescence trajectories were extracted from the recorded movies and used to calculate FRET efficiency according to FRET=ICy5/(ICy3+ICy5), where ICy5 and ICy3 are the intensities of Cy5 and Cy3 fluorescence, respectively. […]

HIV-1 Env, sequence (P03375 33-856): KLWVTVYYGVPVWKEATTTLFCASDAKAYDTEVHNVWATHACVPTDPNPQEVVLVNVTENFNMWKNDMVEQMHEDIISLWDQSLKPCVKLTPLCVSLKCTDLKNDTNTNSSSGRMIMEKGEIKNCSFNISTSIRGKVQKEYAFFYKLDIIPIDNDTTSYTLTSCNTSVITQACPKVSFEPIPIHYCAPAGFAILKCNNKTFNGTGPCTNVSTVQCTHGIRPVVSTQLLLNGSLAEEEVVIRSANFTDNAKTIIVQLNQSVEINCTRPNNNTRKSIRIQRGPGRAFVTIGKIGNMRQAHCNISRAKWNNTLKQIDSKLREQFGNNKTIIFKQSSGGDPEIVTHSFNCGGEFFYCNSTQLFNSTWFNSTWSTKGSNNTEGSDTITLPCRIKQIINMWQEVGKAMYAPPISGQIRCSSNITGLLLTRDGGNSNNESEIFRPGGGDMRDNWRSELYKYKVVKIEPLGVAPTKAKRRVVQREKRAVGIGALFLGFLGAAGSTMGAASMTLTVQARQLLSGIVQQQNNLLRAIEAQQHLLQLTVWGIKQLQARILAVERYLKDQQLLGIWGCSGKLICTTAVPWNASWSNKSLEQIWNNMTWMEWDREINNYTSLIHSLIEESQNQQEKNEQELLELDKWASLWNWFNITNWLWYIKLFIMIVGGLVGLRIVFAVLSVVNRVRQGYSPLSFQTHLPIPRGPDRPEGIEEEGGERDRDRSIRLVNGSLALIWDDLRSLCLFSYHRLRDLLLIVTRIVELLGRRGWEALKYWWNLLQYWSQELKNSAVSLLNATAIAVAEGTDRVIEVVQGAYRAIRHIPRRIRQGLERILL

SMILES	inactivation of HIV-1 Env (HIV-1 Env)	agonist/antagonist character by smFRET (activation of HIV-1 Env) (HIV-1 EnvNL4-3)	effect of inhibitor on smFRET state distribution of HIV-1 Env (HIV-1 EnvNL4-3)
CC1(C)CC(NC(=O)C(=O)Nc2ccc(Cl)c(F)c2)CC(C)(C)N1 [JRC-II-191]	inactivate	clear agonists	induced an intermediate-FRET state
CC1(C)CC(NC(=O)C(=O)Nc2ccc(Cl)cc2)CC(C)(C)N1 [NBD-556]	–	clear agonists	induced an intermediate-FRET state

— US9938324B2, “FRET-based reagents and methods for identifying anti-HIV compounds” (Cornell University, priority 2012, dated 2018)
